# pIC50: −log10 of the molar value.
# Key:
# [1] = target: T1, M2_T-00-37 (UniProt P08172+P97438); assay: TEVC recording of M2_T-00-37 ICCR in Xenopus oocytes; assay type: cell-based, human (M2), mouse (TREK-1); details: 91 mM K+, Vm = −50 mV, mean ± SEM
# T1 construct: M2_T-00-37 with zero deletion in the M2 receptor C terminus (full-length receptor); expressed in transfected cells; host or cells: Xenopus oocytes (mRNA injection)
# Method: (§1) Microelectrodes were filled with […]. […] The membrane voltage was clamped to −50 mV.
# [2] = target: T2, M2_T-00-40 (UniProt P08172+P97438); assay: TEVC recording of M2_T-00-40 ICCR in Xenopus oocytes; assay type: cell-based, human (M2), mouse (TREK-1); details: 91 mM K+, Vm = −50 mV, mean ± SEM
# T2 construct: full-length (−00) or M2 deleted of its last nine residues (−09) in the indicated ICCRs; expressed in transfected cells; host or cells: Xenopus oocytes (mRNA injection)
# Method: as §1
# [3] = target: T3, M2_T(G293E)-00-40 (UniProt P08172+P97438, G308E); assay type: cell-based, human (M2), mouse (TREK-1); details: ACh 5 μM; TEVC, Xenopus oocytes; mean ± SEM
# T3 construct: full-length (−00) or M2 deleted of its last nine residues (−09) in the indicated ICCRs; expressed in transfected cells; host or cells: Xenopus oocytes (mRNA injection)
# Method: as §1
# [4] = target: unfused Kcv (Paramecium bursaria Chlorella virus 1, UniProt Q84568); assay: TEVC controls: unfused Kcv co-expressed with M2, and Kcv alone; assay type: cell-based; details: co-expression of unfused M2 and Kcv, and Kcv alone
# Method: as §1
# [5] = target: T4, M2_T-09-40 (UniProt P08172+P97438); assay: TEVC recording of M2_T-09-40 in Xenopus oocytes; assay type: cell-based, human (M2), mouse (TREK-1); details: ACh 5 μM
# T4 construct: expressed in transfected cells; host or cells: Xenopus oocytes (mRNA injection)
# Method: as §1
# [6] = target: T5, M2_T-00-46 (UniProt P08172+P97438); assay: TEVC recording of M2_T-00-46 ICCR in Xenopus oocytes; assay type: cell-based, human (M2), mouse (TREK-1); details: 91 mM K+, Vm = −50 mV, mean ± SEM
# T5 construct: full-length (−00) or M2 deleted of its last nine residues (−09) in the indicated ICCRs; expressed in transfected cells; host or cells: Xenopus oocytes (mRNA injection); gene synthesized by GeneCust
# Method: as §1
# [7] = target: T6, M2_T-00-43 S300A S333A (UniProt P08172+P97438, S315A/S348A); assay: TEVC recording of phosphorylation-deficient M2_T-00-43 S300A S333A; assay type: cell-based, human (M2), mouse (TREK-1); details: ACh 5 μM
# T6 construct: full-length (−00) or M2 deleted of its last nine residues (−09) in the indicated ICCRs; expressed in transfected cells; host or cells: Xenopus oocytes (mRNA injection); gene synthesized by GeneCust
# Method: as §1
# [8] = tested on: M2[T4L]_T-00-43; assay: TEVC recording of G protein-uncoupled M2[T4L]_T-00-43; assay type: cell-based, human (M2), mouse (TREK-1); details: 5 μM ACh
# Method: as §1
# [9] = target: T7, M2_Kcv-09-03 (UniProt P08172+Q84568); assay: TEVC recording of M2_Kcv-09-03 ICCR expressed in Xenopus oocytes; assay type: cell-based, human (M2), Paramecium bursaria chlorella virus 1 (Kcv)
# T7 construct: expressed in transfected cells; host or cells: Xenopus oocytes (mRNA injection)
# T7 sequence (P08172+Q84568 with tags, fused parts or gaps): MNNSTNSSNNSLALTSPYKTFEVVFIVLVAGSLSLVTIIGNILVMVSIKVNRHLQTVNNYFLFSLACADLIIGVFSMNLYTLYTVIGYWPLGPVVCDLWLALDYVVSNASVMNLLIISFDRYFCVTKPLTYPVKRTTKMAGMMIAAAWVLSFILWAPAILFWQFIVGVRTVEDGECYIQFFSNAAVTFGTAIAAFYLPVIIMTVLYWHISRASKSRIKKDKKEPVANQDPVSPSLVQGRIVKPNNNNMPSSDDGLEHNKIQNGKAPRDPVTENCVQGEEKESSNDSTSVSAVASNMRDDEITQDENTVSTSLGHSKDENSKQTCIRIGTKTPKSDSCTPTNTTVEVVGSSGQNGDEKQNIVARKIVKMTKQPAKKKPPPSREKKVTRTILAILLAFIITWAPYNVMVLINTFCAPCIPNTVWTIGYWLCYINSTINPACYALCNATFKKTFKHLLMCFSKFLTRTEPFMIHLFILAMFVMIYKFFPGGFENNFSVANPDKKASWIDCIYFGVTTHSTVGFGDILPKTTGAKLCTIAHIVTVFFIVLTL
# Method: as §1
# [10] = tested on: M2_Kir6.2-09-25; parameters: method as in Moreau et al., 2017; details: Kir6.2 ICCRs; ref Moreau et al., 2017; read-out: IC50 observed with Kir6.2 ICCRs; cited from earlier work
smiles,measurement,setting,value
"CC(=O)OCC[N+](C)(C)C [ACh, acetylcholine]",activation: % of current change induced by ACh 5 μM on M2_T-00-37,[1],3.9% ± 0.9%
same,activation: % of current change induced by ACh 5 μM on M2_T-00-40,[2],20.2% ± 3.5%
same,activation induced by ACh on the hyperactive G293E mutant of M2_T-00-40,[3],32.5% ± 3.6%
same,regulation of unfused Kcv by ACh,[4],absence of regulation
same,regulation of M2_T-09-40 by ACh,[5],no significant regulation
same,activation: % of current change induced by ACh 5 μM on M2_T-00-46,[6],35.2% ± 1.6%
same,activation of the S300A S333A double mutant of M2_T-00-43 by ACh,[7],preserved activation
same,activation of G protein-uncoupled M2[T4L]_T-00-43 by ACh,[8],still activated by ACh with the same amplitude as WT
same,Hill coefficient (nH) on M2_Kcv-09-03,"[9]; concentration-effect curve, TEVC",0.37
same,inhibition at 5 µM,"[9]; read-out: inhibition: % of current change induced by ACh 5 μM on M2_Kcv-09-03, 5 μM, Xenopus oocytes, 91 mM K+, Vm = −50 mV, printed as inhibition, mean ± SEM",53.4%
same,pIC50,[10],5.90
